Assay results as given in patent US10981911B2, “Imidazopyrrolopyridine as inhibitors of the JAK family of kinases” (Janssen Pharmaceutica NV, priority 2016, dated 2021).
Blank lines part the entries; values can stand above or below the molecule they belong to.

Columns and labels:
Type in all cases: biochemical
JAK1-JH1JH2 = JAK1-JH1JH2 (Homo sapiens (Human), UniProt P23458); assay: Enzymatic inhibition assay (RapidFire HTMS), JAK1; details: 12.5 μM ATP, 200 μM substrate; read-out: JAK1-JH2JH1 IC50
Chain of JAK1-JH1JH2 (P23458 574-1154): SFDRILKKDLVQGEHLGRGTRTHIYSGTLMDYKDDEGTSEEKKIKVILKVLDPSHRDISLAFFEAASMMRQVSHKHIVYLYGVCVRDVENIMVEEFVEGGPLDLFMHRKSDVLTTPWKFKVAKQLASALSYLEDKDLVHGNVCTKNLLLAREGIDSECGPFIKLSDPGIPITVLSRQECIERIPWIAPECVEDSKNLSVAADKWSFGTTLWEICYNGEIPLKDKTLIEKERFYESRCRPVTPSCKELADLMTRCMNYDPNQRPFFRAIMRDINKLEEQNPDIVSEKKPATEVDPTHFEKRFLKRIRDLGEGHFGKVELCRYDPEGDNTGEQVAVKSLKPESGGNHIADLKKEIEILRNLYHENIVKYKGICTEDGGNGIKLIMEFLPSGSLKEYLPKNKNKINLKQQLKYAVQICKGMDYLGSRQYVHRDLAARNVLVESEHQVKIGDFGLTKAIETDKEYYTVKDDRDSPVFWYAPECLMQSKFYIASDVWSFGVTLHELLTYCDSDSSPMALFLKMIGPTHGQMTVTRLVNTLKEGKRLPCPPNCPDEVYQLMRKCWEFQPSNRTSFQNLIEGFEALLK
How it was run: (§1)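 Quenched with 0.5% TFA plus internal-standard peptide; phosphorylated product quantified by RapidFire C4 SPE–ESI-MS, 11-point 1:3 or 1:4 dilutions in duplicate.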

JAK2-JH1JH2 = JAK2-JH1JH2 (Homo sapiens (Human), UniProt O60674); assay: Enzymatic inhibition assay (RapidFire HTMS), JAK2; details: 30 μM ATP, 40 μM substrate
Chain of JAK2-JH1JH2 (O60674 532-1132): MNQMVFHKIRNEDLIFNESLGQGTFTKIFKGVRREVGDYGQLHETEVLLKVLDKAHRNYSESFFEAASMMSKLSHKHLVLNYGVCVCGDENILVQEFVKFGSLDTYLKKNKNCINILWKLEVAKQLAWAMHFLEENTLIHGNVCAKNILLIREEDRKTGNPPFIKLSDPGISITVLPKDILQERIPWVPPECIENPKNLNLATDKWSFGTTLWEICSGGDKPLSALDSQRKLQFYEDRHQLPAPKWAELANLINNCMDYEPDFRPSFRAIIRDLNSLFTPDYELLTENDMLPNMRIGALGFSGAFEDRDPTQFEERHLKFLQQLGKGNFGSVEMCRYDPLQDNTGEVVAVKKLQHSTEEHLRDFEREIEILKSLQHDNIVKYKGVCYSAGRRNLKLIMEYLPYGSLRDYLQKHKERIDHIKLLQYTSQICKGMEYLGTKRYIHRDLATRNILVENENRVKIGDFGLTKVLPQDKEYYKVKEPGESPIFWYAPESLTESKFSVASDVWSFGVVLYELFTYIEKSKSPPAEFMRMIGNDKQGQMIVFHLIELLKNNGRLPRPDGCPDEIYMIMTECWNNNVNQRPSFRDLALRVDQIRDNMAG
Excerpt: LC/MS grade Water and Acetonitrile (ACN), were purchased from HoneyWell, Burdick & Jackson (Muskegon, Mich., USA). Dimethylsulfoxide 99.8% (DMSO) and Trifluoroacetic Acid 99.5% (TFA) were purchased from EMD Chemical (Gibbstown, N.J., USA). Adenosine triphosphate (ATP), 4-Morpholinepropanesulfonic acid (MOPS), Magnesium chloride (MgCl2), ethylenediaminetetraacetic acid (EDTA), dithiothreitol (DTT), formic acid >95% (FA) and Tween-20 were purchased from Sigma (St Louis, Mo., USA). 384-well polypropylene plates, Cat #781280 were purchased from Greiner (Monroe, N.C.), RapidFire™ cartridge A C4 Column (Agilent Technologies, Santa Clara, Calif.).
The HTMS experiments were performed in positive ionization mode on a RapidFire 300 instrument (Agilent Technologies, Santa Clara, Calif.), coupled with an ABSiex QTrap 4000 system with an Electrospray Ionization source (RF-MS) (Concord, ON, Canada). […] The entire system was operated using the RapidFire software interfaced with Analyst software for the mass spectrometer.
11-point dosing series were made for each compound by serially diluting 1:3 or 1:4 in DMSO, with point 12 being a DMSO control. From the serial dilution plates, sample was transferred to a 384 wells assay plate (#781280, Greiner, Monroe, N.C.) using Labcyte Echo (Sunnyvale, Calif.), or Biosero ATS (San Diego, Calif.). The compounds were tested in duplicate. Column 12 was used for positive controls, and column 24 contained negative controls with no enzyme added. A compound from our internal collection, with inhibitory activity for JAK isoforms, was used as a reference compound. The final concentration of DMSO was ≤0.25% in a 20 μL reaction. […] The Tyk2 enzyme was pre-incubated with 2 mM ATP for 30 min prior to the reaction initiation. Immediately after the addition of the enzyme to the reaction mixture, the plate was centrifuged at 1000 rpm for 1 minute and incubated at 25° C. for 45 minutes for JAK 3 and 90 minutes for JAK1, JAK2 and Tyk2. The reaction was quenched by the addition of 20 μL of 0.5% TFA containing 0.15 μM of internal standard peptide using Multidrop Combi reagent dispenser (Thermo Scientific, Waltham, Mass.). […] After the quench, the assay plate was centrifuged at 3000 rpm for 3 minutes and sealed with pierceable aluminum foil (Cat #06644-001, Agilent) using a PlateLoc (Agilent Technologies, Santa Clara, Calif.). The plates then were transferred on to the RapidFire for the MS analysis. Compound inhibition was assessed by a decrease of the phosphorylated product levels in sample wells compared to the non-inhibited enzyme reaction.
The sample analysis on the RapidFire was performed using a mobile phase A consisting of Water/TFA/FA (100:0.01:0.1, v/v/v), a mobile phase B consisting of ACN/Water/TFA/FA (80:20:0.01:0.1, v/v/v). […] The samples were aspirated directly from the 384 assay plate and delivered onto RF-MS microscale solid-phase C4 extraction cartridge (Type A). The undesired component such as salt, cofactor, detergent and large protein were washed out and the retained analytes (substrate, product and IS) were coeluted directly onto the ABSiex Qtrap 4000 system.

JAK3-JH1JH2 = JAK3-JH1JH2 (Homo sapiens (Human), UniProt P52333); assay: Enzymatic inhibition assay (RapidFire HTMS), JAK3; details: 150 μM ATP, 40 μM substrate
Chain of JAK3-JH1JH2 (P52333 512-1124): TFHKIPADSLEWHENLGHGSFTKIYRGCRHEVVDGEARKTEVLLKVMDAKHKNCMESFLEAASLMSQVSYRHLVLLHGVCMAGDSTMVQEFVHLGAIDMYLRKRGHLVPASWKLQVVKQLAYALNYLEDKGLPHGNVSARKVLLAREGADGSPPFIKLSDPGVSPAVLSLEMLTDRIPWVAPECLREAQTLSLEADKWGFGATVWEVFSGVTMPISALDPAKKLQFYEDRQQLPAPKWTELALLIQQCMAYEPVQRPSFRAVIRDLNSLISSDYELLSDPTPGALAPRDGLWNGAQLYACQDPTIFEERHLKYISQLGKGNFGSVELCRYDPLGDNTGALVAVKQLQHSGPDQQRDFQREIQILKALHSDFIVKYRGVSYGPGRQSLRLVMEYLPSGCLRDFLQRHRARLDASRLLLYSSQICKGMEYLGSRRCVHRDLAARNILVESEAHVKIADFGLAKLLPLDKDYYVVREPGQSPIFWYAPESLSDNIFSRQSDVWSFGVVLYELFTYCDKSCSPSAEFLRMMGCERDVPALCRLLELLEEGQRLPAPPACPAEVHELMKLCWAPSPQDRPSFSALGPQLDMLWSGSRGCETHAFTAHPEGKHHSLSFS
How it was run: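 JAK3 JH1JH2 reaction incubated 45 min at 25 °C, then quenched with 0.5% TFA containing 0.15 μM internal standard peptide. Phosphopeptide product measured by RapidFire C4 SPE–ESI MS (positive mode); inhibition from product decrease versus uninhibited enzyme, 11-point 1:3 or 1:4 dilutions in duplicate.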

Tyk2-JH1JH2 = Tyk2-JH1JH2 (Homo sapiens (Human), UniProt P29597, C1142A/C936A); assay: Enzymatic inhibition assay (RapidFire HTMS), Tyk2; details: 50 μM ATP, 200 μM substrate
Chain of Tyk2-JH1JH2 (P29597 580-1182 C936A/C1142A): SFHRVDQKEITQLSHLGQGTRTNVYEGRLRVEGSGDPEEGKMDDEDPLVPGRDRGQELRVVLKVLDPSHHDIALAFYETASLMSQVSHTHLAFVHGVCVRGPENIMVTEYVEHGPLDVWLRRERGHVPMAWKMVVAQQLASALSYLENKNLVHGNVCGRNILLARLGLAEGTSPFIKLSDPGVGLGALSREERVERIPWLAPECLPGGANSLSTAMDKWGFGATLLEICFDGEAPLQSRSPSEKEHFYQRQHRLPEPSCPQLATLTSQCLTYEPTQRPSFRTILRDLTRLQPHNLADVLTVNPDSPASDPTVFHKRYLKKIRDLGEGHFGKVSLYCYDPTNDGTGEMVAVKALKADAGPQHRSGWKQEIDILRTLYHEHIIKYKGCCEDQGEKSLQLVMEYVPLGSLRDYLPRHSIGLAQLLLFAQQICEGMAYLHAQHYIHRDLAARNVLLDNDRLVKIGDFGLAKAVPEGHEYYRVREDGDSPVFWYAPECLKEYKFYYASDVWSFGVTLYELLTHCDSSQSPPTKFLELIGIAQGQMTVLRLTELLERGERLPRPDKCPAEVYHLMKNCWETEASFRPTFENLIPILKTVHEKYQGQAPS
How it was run: as §1

SMILES: N#CC[C@H]1CC[C@H](n2c(CNC(=O)Oc3ccccc3)nc3cnc4[nH]ccc4c32)CC1 [Ex. 46, Phenyl ((1-((1r,4r)-4-(cyanomethyl)cyclohexyl)-1,6-dihydroimidazo[4,5-d]pyrrolo[2,3-b]pyridin-2-yl)methyl)carbamate]
IC50 (JAK1-JH1JH2): 0.2 nM
IC50 (JAK2-JH1JH2): 14.5 nM
IC50 (JAK3-JH1JH2): 214 nM
IC50 (Tyk2-JH1JH2): 5.5 nM

SMILES: N#CC[C@H]1CC[C@H](n2c(CC(=O)N3CCCCC3)nc3cnc4[nH]ccc4c32)CC1 [Ex. 90, 2-((1r,4r)-4-(2-(2-Oxo-2-(piperidin-1-yl)ethyl)imidazo[4,5-d]pyrrolo[2,3-b]pyridin-1(6H)-yl)cyclohexyl)acetonitrile]
IC50 (JAK1-JH1JH2): < 4 nM
IC50 (JAK2-JH1JH2): 8.1 nM
IC50 (JAK3-JH1JH2): 85 nM
IC50 (Tyk2-JH1JH2): ~2.4 nM

SMILES: N#CC[C@H]1CC[C@H](n2c(-c3ccc(C#N)nc3)nc3cnc4[nH]ccc4c32)CC1 [Ex. 115, 5-(1-((1r,4r)-4-(Cyanomethyl)cyclohexyl)-1,6-dihydroimidazo[4,5-d]pyrrolo[2,3-b]pyridin-2-yl)picolinonitrile]
IC50 (JAK1-JH1JH2): 0.6 nM
IC50 (JAK2-JH1JH2): 73.2 nM
IC50 (JAK3-JH1JH2): 754 nM
IC50 (Tyk2-JH1JH2): 86.2 nM

SMILES: N#CC[C@H]1CC[C@H](n2c(-c3nc[nH]n3)nc3cnc4[nH]ccc4c32)CC1 [Ex. 9, 2-((1r,4r)-4-(2-(1H-1,2,4-Triazol-3-yl)imidazo[4,5-d]pyrrolo[2,3-b]pyridin-1(6H)-yl)cyclohexyl)acetonitrile]
IC50 (JAK1-JH1JH2): 0.1 nM
IC50 (JAK2-JH1JH2): 0.3 nM
IC50 (JAK3-JH1JH2): 48.9 nM
IC50 (Tyk2-JH1JH2): 1.6 nM

SMILES: CCOC(=O)N1CC(c2nc3cnc4[nH]ccc4c3n2[C@H]2CC[C@H](CC#N)CC2)C1 [Ex. 128, Ethyl 3-(1-((1r,4r)-4-(Cyanomethyl)cyclohexyl)-1,6-dihydroimidazo[4,5-d]pyrrolo[2,3-b]pyridin-2-yl)azetidine-1-carboxylate]
IC50 (JAK1-JH1JH2): 0.7 nM
IC50 (JAK2-JH1JH2): 110 nM
IC50 (JAK3-JH1JH2): 1090 nM
IC50 (Tyk2-JH1JH2): 64.4 nM

SMILES: CC1CC(C)CC(NC(=O)Cc2nc3cnc4[nH]ccc4c3n2[C@H]2CC[C@H](CC#N)CC2)C1 (stereo partly drawn) [Ex. 75, 2-(1-((1r,4r)-4-(Cyanomethyl)cyclohexyl)-1,6-dihydroimidazo[4,5-d]pyrrolo[2,3-b]pyridin-2-yl)-N-(3,5-dimethylcyclohexyl)acetamide]
IC50 (JAK1-JH1JH2): 0.4 nM
IC50 (JAK2-JH1JH2): 3.4 nM
IC50 (JAK3-JH1JH2): 62.3 nM
IC50 (Tyk2-JH1JH2): 9.2 nM

SMILES: CC(C)(O)CCNC(=O)Cc1nc2cnc3[nH]ccc3c2n1[C@H]1CC[C@H](CC#N)CC1 [Ex. 59, 2-(1-((1r,4r)-4-(Cyanomethyl)cyclohexyl)-1,6-dihydroimidazo[4,5-d]pyrrolo[2,3-b]pyridin-2-yl)-N-(3-hydroxy-3-methylbutyl)acetamide]
IC50 (JAK1-JH1JH2): 0.3 nM
IC50 (JAK2-JH1JH2): 6.7 nM
IC50 (JAK3-JH1JH2): 122 nM
IC50 (Tyk2-JH1JH2): 7.2 nM

SMILES: N#CC[C@H]1CC[C@H](n2c(CC(=O)N3CCC(Cc4ccccc4)CC3)nc3cnc4[nH]ccc4c32)CC1 [Ex. 87, 2-((1r,4r)-4-(2-(2-(4-Benzylpiperidin-1-yl)-2-oxoethyl)imidazo[4,5-d]pyrrolo[2,3-b]pyridin-1(6H)-yl)cyclohexyl)acetonitrile]
IC50 (JAK1-JH1JH2): < 0.4 nM
IC50 (JAK2-JH1JH2): 27.7 nM
IC50 (JAK3-JH1JH2): 274 nM
IC50 (Tyk2-JH1JH2): 10.3 nM

SMILES: N#CC[C@H]1CC[C@H](n2c(CN/C(CC3CCCCC3)=N/O)nc3cnc4[nH]ccc4c32)CC1 [Ex. 95]
IC50 (JAK1-JH1JH2): 0.5 nM
IC50 (JAK2-JH1JH2): 0.6 nM
IC50 (JAK3-JH1JH2): 18.7 nM
IC50 (Tyk2-JH1JH2): 1.4 nM

SMILES: N#CC[C@H]1CC[C@H](n2c(CC(=O)NCc3ccc(CO)cc3)nc3cnc4[nH]ccc4c32)CC1 [Ex. 68, 2-(1-((1r,4r)-4-(Cyanomethyl)cyclohexyl)-1,6-dihydroimidazo[4,5-d]pyrrolo[2,3-b]pyridin-2-yl)-N-(4-(hydroxymethyl)benzyl)acetamide]
IC50 (JAK1-JH1JH2): 0.3 nM
IC50 (JAK2-JH1JH2): 8.2 nM
IC50 (JAK3-JH1JH2): 180 nM
IC50 (Tyk2-JH1JH2): 13.3 nM

SMILES: CC(C)/C(N)=N/OCc1nc2cnc3[nH]ccc3c2n1[C@H]1CC[C@H](CC#N)CC1 [Ex. 150, (Z*)—N-((1-((1r,4r)-4-(Cyanomethyl)cyclohexyl)-1,6-dihydroimidazo[4,5-d]pyrrolo[2,3-b]pyridin-2-yl)methoxy)isobutyrimidamide]
IC50 (JAK1-JH1JH2): 1.2 nM
IC50 (JAK2-JH1JH2): 10 nM
IC50 (JAK3-JH1JH2): 110 nM
IC50 (Tyk2-JH1JH2): 34 nM

SMILES: N#CC[C@H]1CC[C@H](n2c(CC(=O)N[C@H]3CC[C@H](CO)CC3)nc3cnc4[nH]ccc4c32)CC1 [Ex. 27, 2-(1-((1r,4r)-4-(Cyanomethyl)cyclohexyl)-1,6-dihydroimidazo[4,5-d]pyrrolo[2,3-b]pyridin-2-yl)-N-((1r,4r)-4-(hydroxymethyl)cyclohexyl)acetamide]
IC50 (JAK1-JH1JH2): 0.1 nM
IC50 (JAK2-JH1JH2): 2.9 nM
IC50 (JAK3-JH1JH2): 36.9 nM
IC50 (Tyk2-JH1JH2): 7.2 nM

Further lines, results first:

IC50 (JAK1-JH1JH2): 0.7 nM
IC50 (JAK2-JH1JH2): 16 nM
IC50 (JAK3-JH1JH2): 228 nM
IC50 (Tyk2-JH1JH2): 19.1 nM
SMILES: COCCNC(=O)Cc1nc2cnc3[nH]ccc3c2n1[C@H]1CC[C@H](CC#N)CC1 [Ex. 120, 2-(1-((1r,4r)-4-(Cyanomethyl)cyclohexyl)-1,6-dihydroimidazo[4,5-d]pyrrolo[2,3-b]pyridin-2-yl)-N-(2-methoxyethyl)acetamide]

IC50 (JAK1-JH1JH2): 0.3 nM
IC50 (JAK2-JH1JH2): 5.6 nM
IC50 (JAK3-JH1JH2): 51.4 nM
IC50 (Tyk2-JH1JH2): 5.7 nM
SMILES: N#CC[C@H]1CC[C@H](n2c(CC(=O)Nc3cn[nH]c3)nc3cnc4[nH]ccc4c32)CC1 [Ex. 64, 2-(1-((1r,4r)-4-(Cyanomethyl)cyclohexyl)-1,6-dihydroimidazo[4,5-d]pyrrolo[2,3-b]pyridin-2-yl)-N-(1H-pyrazol-4-yl)acetamide]

IC50 (JAK1-JH1JH2): 1.7 nM
IC50 (JAK2-JH1JH2): 122 nM
IC50 (JAK3-JH1JH2): 2700 nM
IC50 (Tyk2-JH1JH2): 30.5 nM
SMILES: N#CC[C@H]1CC[C@H](n2c(Cn3c(C4CC4)noc3=O)nc3cnc4[nH]ccc4c32)CC1 [Ex. 165, 2-((1r,4r)-4-(2-((3-Cyclopropyl-5-oxo-1,2,4-oxadiazol-4(5H)-yl)methyl)imidazo[4,5-d]pyrrolo[2,3-b]pyridin-1(6H)-yl)cyclohexyl)acetonitrile]

IC50 (JAK1-JH1JH2): 3.2 nM
IC50 (JAK2-JH1JH2): 21.2 nM
IC50 (JAK3-JH1JH2): 864 nM
IC50 (Tyk2-JH1JH2): 60.8 nM
SMILES: C[S@@](=O)(=NCc1nc2cnc3[nH]ccc3c2n1[C@H]1CC[C@H](CC#N)CC1)c1ccccc1 [Ex. 163, 2-((1r,4r)-4-(2-((((S)-methyl(oxo)(phenyl)-λ^6-sulfanylidene)amino)methyl)imidazo[4,5-d]pyrrolo[2,3-b]pyridin-1(6H)-yl)cyclohexyl)acetonitrile]

IC50 (JAK1-JH1JH2): 1.3 nM
IC50 (JAK2-JH1JH2): 33.6 nM
IC50 (JAK3-JH1JH2): 1320 nM
IC50 (Tyk2-JH1JH2): 2.9 nM
SMILES: N#CC[C@H]1CC[C@H](n2c(CNC(=N)C34CC5CC(CC(C5)C3)C4)nc3cnc4[nH]ccc4c32)CC1 [Ex. 156, (3R,5R,7R)—N-((1-((1r,4r)-4-(Cyanomethyl)cyclohexyl)-1,6-dihydroimidazo[4,5-d]pyrrolo[2,3-b]pyridin-2-yl)methyl)adamantane-1-carboximidamide]

IC50 (JAK1-JH1JH2): < 4 nM
IC50 (JAK2-JH1JH2): 15.5 nM
IC50 (JAK3-JH1JH2): 132 nM
IC50 (Tyk2-JH1JH2): 6.2 nM
SMILES: COC1CCN(C(=O)Cc2nc3cnc4[nH]ccc4c3n2[C@H]2CC[C@H](CC#N)CC2)CC1 [Ex. 197, 2-((1r,4r)-4-(2-(2-(4-Methoxypiperidin-1-yl)-2-oxoethyl)imidazo[4,5-d]pyrrolo[2,3-b]pyridin-1(6H)-yl)cyclohexyl)acetonitrile]
